From patent US20040167103A1, “Haloacetamide and azide substituted compounds and methods of use thereof” (priority 2003, published 2004)

Key:
DU 145 cells = test: Cell growth inhibition (sulforhodamine B assay), DU145; assay type: cell-based; conditions: Homo sapiens, DU-145, 96 h, SRB assay, 4 days treatment
Protocol: (§1) Prostate cancer cell lines were obtained from ATCC. All cells were grown in RPMI-1640 medium containing 2 mM L-glutamine supplemented with 10% fetal bovine serum (FBS) and maintained in a 5% CO2/95% air humidified atmosphere at 37° C.
(§2) Cells were plated on 96-well plates and incubated with drug-containing culture medium (200 μL/well) for 4 (DU 145, PC-3, PPC-1, and TSU) or 6 (LNCaP) days. Medium was replaced with freshly prepared batches every other day during the incubation. At the end of drug treatment, an aliquot of 50 μL of cold (4° C.) trichloroacetic acid (TCA, 50%) was gently layered on the top of growth medium in each well to make a final TCA concentration of 10%. […] The cellular protein-bound SRB was then dissolved with 200 μL unbuffered Tris base (10 mM, pH 10.5) for 30 minutes on a rocking platform shaker, and absorbance at 540 nm was measured by a plate reader.
(§3) Percentage of cell survival was calculated by absorbance at 540 nm in testing wells divided by absorbance in negative control wells (medium without the test compound). […]
(§4) METHODS: LNCaP, DU145, PC-3, TSU, and PPC-1 cells were cultured in 96-well plates and treated with increasing concentrations of the compound of interest for 4 days. Cell survival was determined by the sulforhodamine B assay and was plotted as a percentage of control (drug-free wells) versus drug concentration. […]

PC-3 cells = test: Cell growth inhibition (sulforhodamine B assay), PC-3; assay type: cell-based; conditions: Homo sapiens, PC-3, 96 h, SRB assay, 4 days treatment
Protocol: as §1, §2, §3, §4

TSU cells = test: Cell growth inhibition (sulforhodamine B assay), TSU; assay type: cell-based; conditions: Homo sapiens, 96 h, SRB assay, 4 days treatment
Protocol: as §1, §2, §3, §4

PPC-1 cells = test: Cell growth inhibition (sulforhodamine B assay), PPC-1; assay type: cell-based; conditions: Homo sapiens, PPC-1, 96 h, SRB assay, 4 days treatment
Protocol: as §1, §2, §3, §4

LNCaP cells [1] = test: Cell growth inhibition (sulforhodamine B assay), LNCaP; assay type: cell-based, human; conditions: for IC50: Homo sapiens, LNCaP, SRB assay; for Sensitivity of LNCaP cells compared with other cell lines: LNCaP the only androgen receptor expressing cell line tested
Protocol: as §1
Cells were plated on 96-well plates and incubated with drug-containing culture medium (200 μL/well) for 4 (DU 145, PC-3, PPC-1, and TSU) or 6 (LNCaP) days. Medium was replaced with freshly prepared batches every other day during the incubation. At the end of drug treatment, an aliquot of 50 μL of cold (4° C.) trichloroacetic acid (TCA, 50%) was gently layered on the top of growth medium in each well to make a final TCA concentration of 10%. The mixtures were incubated at 4° C. for 1 hour, and then washed 5 times with tap water to remove TCA, growth medium, low-molecular-weight metabolites, and serum proteins. The plates were air dried overnight. Next, fixed cells were stained with 50 μL of SRB solution (0.4%, wt/vol) for 10 minutes. After staining, SRB solution was decanted, and plates were quickly rinsed 5 times with 1% acetic acid to remove unbound dye and air dried overnight. The cellular protein-bound SRB was then dissolved with 200 μL unbuffered Tris base (10 mM, pH 10.5) for 30 minutes on a rocking platform shaker, and absorbance at 540 nm was measured by a plate reader.
Percentage of cell survival was calculated by absorbance at 540 nm in testing wells divided by absorbance in negative control wells (medium without the test compound). Percentages of cell survival versus drug concentrations were plotted and the concentration of drug that inhibited cell growth by 50% (IC50) was determined by nonlinear regression using WinNonlin (Pharsight Corporation, Mountain View, Calif.).
METHODS: LNCaP, DU145, PC-3, TSU, and PPC-1 cells were cultured in 96-well plates and treated with increasing concentrations of the compound of interest for 4 days. Cell survival was determined by the sulforhodamine B assay and was plotted as a percentage of control (drug-free wells) versus drug concentration. The concentration of drug that inhibited cell growth by 50% (IC50) was determined by non-linear regression. Known anticancer drugs were used as cytotoxic positive controls.

[2] = target: T1, cytosolic AR prepared from rat ventral prostates (Rattus norvegicus, UniProt P15207); test: Androgen receptor radioligand competitive binding assay (3H-mibolerone)
T1 construct: cytosolic AR prepared from rat ventral prostates; from tissue; host or cells: rat ventral prostate cytosol
T1 sequence (P15207 1-902): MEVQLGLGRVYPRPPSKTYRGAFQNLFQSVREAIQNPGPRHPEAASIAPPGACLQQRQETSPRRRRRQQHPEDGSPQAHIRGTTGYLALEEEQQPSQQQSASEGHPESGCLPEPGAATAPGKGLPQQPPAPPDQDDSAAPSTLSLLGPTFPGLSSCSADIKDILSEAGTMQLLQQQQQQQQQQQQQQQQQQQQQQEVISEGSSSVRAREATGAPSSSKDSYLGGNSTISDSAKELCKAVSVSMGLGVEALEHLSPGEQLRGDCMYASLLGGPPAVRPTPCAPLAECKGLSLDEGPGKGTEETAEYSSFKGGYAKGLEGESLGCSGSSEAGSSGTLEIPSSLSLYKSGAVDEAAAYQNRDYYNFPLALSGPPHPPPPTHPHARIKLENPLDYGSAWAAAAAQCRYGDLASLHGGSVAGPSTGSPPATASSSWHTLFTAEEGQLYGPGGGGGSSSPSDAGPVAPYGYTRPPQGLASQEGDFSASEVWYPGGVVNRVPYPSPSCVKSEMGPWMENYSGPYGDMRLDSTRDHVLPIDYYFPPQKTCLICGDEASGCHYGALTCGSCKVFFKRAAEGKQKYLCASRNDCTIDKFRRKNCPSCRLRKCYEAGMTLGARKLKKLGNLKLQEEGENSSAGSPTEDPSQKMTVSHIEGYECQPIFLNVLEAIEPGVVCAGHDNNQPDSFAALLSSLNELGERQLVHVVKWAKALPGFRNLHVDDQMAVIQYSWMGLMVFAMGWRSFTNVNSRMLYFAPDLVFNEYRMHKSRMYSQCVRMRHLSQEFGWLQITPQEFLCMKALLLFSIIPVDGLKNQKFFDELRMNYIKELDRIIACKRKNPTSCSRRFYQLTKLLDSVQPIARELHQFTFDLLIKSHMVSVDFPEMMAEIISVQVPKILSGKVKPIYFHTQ
Protocol: The AR binding affinity of test compounds was determined by a radioligand competitive binding assay with cytosolic AR prepared from rat ventral prostates. […] After incubation, the protein-bound radioactivity was separated from free radioactivity by HAP precipitation. The bound radioactivity was then extracted from HAP by ethanol, and counted in a Beckman LS6800 liquid scintillation counter (Beckman Instruments Inc., Palo Alto, Calif.). Nonspecific binding was determined separately by including 1,000 nM of unlabeled MIB in the incubate. The binding data was fitted to the equation B=B0*[1-C/(IC50+C)] using WinNonlin.

[3] = system: prostate cancer cell lines DU 145, PC-3, TSU, PPC-1 and LNCaP; test: Cell growth inhibition (sulforhodamine B assay), five prostate cancer cell lines together; assay type: cell-based, human; conditions: statement in words
Protocol: as §1, §2, §3, §4

LNCaP cells [4] = test: Growth curve (trypan blue cell count, 120 h), LNCaP compared with other lines; assay type: cell-based, human
Protocol: METHODS: Cells were plated at 5-10×10^4 cells/well in five 6-well plates and incubated at 37° C., 5% CO2 for 24 h to allow the cells sufficient time to attach and be in log phase growth at the start of the experiment. The media was aspirated from four of the plates and replaced with media containing vehicle control (DMSO) or drug dissolved in DMSO. The total volume of DMSO/drug added to each well was equal to 0.1% of the media volume in each well. LNCaP, PC-3, MCF-7, and CV-1 cells were treated with vehicle control, and increasing concentrations of Compound 1 and Compound 2 (0.01, 0.05, 0.1, 0.5, 1.0, 5.0, and 10.0 μM). Three wells were treated with the same concentration of the drugs or DMSO for each treatment condition listed above. The cells from the remaining 6-well plate were collected and counted to determine plating efficiency. The 6-well plates containing DMSO/drug were incubated for 120 h at 37° C., 5% CO2. After 120 h, the media from each well was collected along with trypsinized cells and centrifuged at 150×g for 4 min. The cells were resuspended in 1 mL of media, from which 90 μl was taken and combined with 10 μl trypan blue for counting on a hemacytometer.

LNCaP cells [5] = test: TUNEL assay (apoptosis, DNA fragmentation); assay type: cell-based, human; conditions: LNCaP cells exposed for 24 hours, relative to 0.1% DMSO vehicle control
Protocol: METHODS: DNA fragmentation of apoptotic cells was monitored by the TUNEL assay as described by the supplier. Briefly, LNCaP cells were plated at 2×10^5 cells/well in 2-well chamber slides and incubated at 37° C., 5% CO2 for 24 h to allow the cells sufficient time to attach and be in log phase growth at the start of the experiment. The media was aspirated and replaced with media containing vehicle control (DMSO) or drug dissolved in DMSO. The total volume of DMSO/drug added to each well was equal to 0.1% of the media volume in each well. LNCaP cells were treated with vehicle control, and increasing concentrations of Compound 1 and Compound 2 (0.1, 1.0, and 10.0 μM) for 24-48 h. Two wells were treated with the same concentration of the drugs or DMSO for each treatment condition listed above. The media was collected along with the trypsinized cells and centrifuged at 150×g for 4 min. […] Green and red fluorescence emissions were observed microscopically using 520 nm and >620 nm filters, respectively.
RESULTS: The TUNEL assay is used to determine whether cells are undergoing apoptosis (cell death mechanism) as a result of drug treatment. […] TUNEL assay incorporates a dye that labels the 3′ ends of such DNA fragments which are then visualized by fluorescence. […]

`N[C@@H](Cc1ccc(N(CCCl)CCCl)cc1)C(=O)O` [Melphalan] was tested, and the IC50 (DU 145 cells; Melphalan line, unit nM) was 31 nM, the IC50 (PC-3 cells; Melphalan line, unit nM) was 30.4 ± 3.1 nM and the IC50 (TSU cells; Melphalan line, unit nM) was 4 ± 0.2 nM. It also gave an IC50 (PPC-1 cells; Melphalan line, unit nM) of 16.2 nM and an IC50 (LNCaP cells [1]; 4 or 6 days treatment, Melphalan line, unit nM) of 10.3 nM.
Compound `C[C@@H]1CC2=CC(=O)CC[C@@H]2[C@H]2CC[C@@]3(C)[C@@H](CC[C@]3(C)O)[C@@H]21` [Compound 3H-MIB, 3H-mibolerone] has a Kd ([2]; determined in preliminary experiments, read-out: Kd, equilibrium dissociation constant of 3H-MIB) of 0.19 ± 0.01 nM.
Work on `C[C@@](O)(CBr)C(=O)Nc1ccc([N+](=O)[O-])c(C(F)(F)F)c1` [S-NTBA] yielded an IC50 (DU 145 cells) of 4700 ± 300 nM, an IC50 (PC-3 cells) of 3100 ± 500 nM and an IC50 (TSU cells) of 3500 ± 200 nM. The IC50 (PPC-1 cells) was 2200 ± 200 nM and the IC50 (LNCaP cells [1]; 4 days or 6 days treatment) was 1300 ± 200 nM.
With `C[C@](O)(COc1ccc(NC(=O)CCl)cc1)C(=O)Nc1ccc([N+](=O)[O-])c(C(F)(F)F)c1` [Compound 2] the “Sensitivity of LNCaP cells compared with other cell lines” value (LNCaP cells [1]) was “not more sensitive”, the Ki [2] was 1.9 ± 0.3 nM and the “IC50 values in inhibiting the growth of all five prostate cancer cell lines” value [3] was “low micro-molar range”. For the same compound, the “Fold sensitivity of LNCaP cells over PC-3 or CV-1 cells” value (LNCaP cells [4]; growth curve) was “approximately 10 fold” and the “Apoptosis, DNA fragmentation (green fluorescence)” value (LNCaP cells [5]) was “similar”.
With `C[C@](O)(COc1ccc(NC(=O)CBr)cc1)C(=O)Nc1ccc([N+](=O)[O-])c(C(F)(F)F)c1` [Compound 1] the “Sensitivity of LNCaP cells compared with other cell lines” value (LNCaP cells [1]) was “not more sensitive”, the Ki [2] was 13.9 ± 1.4 nM and the “IC50 values in inhibiting the growth of all five prostate cancer cell lines” value [3] was “low micro-molar range”. The “Growth inhibitory activity against various cancer cell lines” value (LNCaP cells [4]; LNCaP versus PC-3, MCF-7 and CV-1 cells, 0.01-10.0 μM) was “non-selective growth inhibitory activity” and the “Apoptosis, DNA fragmentation (green fluorescence)” value (LNCaP cells [5]) was “exhibit green fluorescence”.
